Test results as given in article PMC6032018, “Post-translational regulation of a Porphyromonas gingivalis regulator” (Journal of Oral Microbiology, 2018).

What was measured:
RprY [1] = biological target: T1, RprY (Porphyromonas gingivalis, UniProt B2RK10); experiment: EMSA with nqrA promoter DNA and in vitro ChIP after treatment with AcP; assay type: biochemical; details: phosphoryl donor; covalent; protein as purified already partly phosphorylated; acetylation by AcP not ruled out
T1 construct: N-terminal His6-RprY (pETRprY), recombinant from E. coli BL21(DE3), 28 kDa ORF; already phosphorylated as purified

RprY [2] = biological target: T1, RprY; experiment: autoacetylation, anti-acetyl-lysine Western blot; assay type: biochemical; details: 10 mM Tris-HCl pH 8.0, 37 °C, no added enzyme; covalent (lysine acetylation); acetyl donor

T1 sequence (B2RK10 entry or part of it): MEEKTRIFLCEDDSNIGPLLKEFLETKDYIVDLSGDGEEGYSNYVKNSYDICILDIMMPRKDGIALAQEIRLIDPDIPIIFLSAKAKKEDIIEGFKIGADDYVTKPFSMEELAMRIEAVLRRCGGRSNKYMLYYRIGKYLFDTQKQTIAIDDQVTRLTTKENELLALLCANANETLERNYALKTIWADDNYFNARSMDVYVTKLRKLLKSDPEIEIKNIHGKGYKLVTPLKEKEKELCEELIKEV

| Compound | EMSA with nqrA promoter DNA and in vitro ChIP after treatment with AcP (RprY [1]) | autoacetylation, anti-acetyl-lysine Western blot (RprY [2]) |
| --- | --- | --- |
| CC(=O)OP(=O)(O)O [acetyl phosphate] | increasing concentrations of AcP resulted in increased incorporation of the labelled promoter into RprY-DNA complexes | – |
| CC(=O)SCCNC(=O)CCNC(=O)[C@H](O)C(C)(C)COP(=O)(O)OP(=O)(O)OC[C@H]1O[C@@H](n2cnc3c(N)ncnc32)[C@H](O)[C@@H]1OP(=O)(O)O [acetyl-CoA] | – | RprY was dependent on both the concentration of Ac-CoA and the length of incubation |
